Source: patent publication US4657892A, “Pharmacologically active peptides” (priority 1983, dated 1987)
pIC50: −log10 of the molar value. “Also recorded” adds a separate entry of the source. Where two headings read alike, the source gives them in different places. Non-standard residues stand in square brackets, D forms with d. Residues, ends and D or L forms follow the SMILES beside them.

Columns and labels:
[1] = tested on: isolated guinea-pig ileum; conditions: * marked, from Castiglione et al., Peptides 2, p. 266, read-out: IC50 (* values described by Castiglione et al.); cited from earlier work
[2] = molecular target: T1, α-chymotrypsin (Bos taurus, UniProt P00766, DEL14-15/DEL147-148); test: enzymatic stability against α-chymotrypsin, remaining activity assayed on guinea-pig ileum; type: in vitro ADME; conditions: 1 mg peptide, 50 μg α-chymotrypsin, Krebs-Ringer solution, 5 hours at 37° C.
T1 construct: purchased Serva, Heidelberg
Description: 1 mg of each of the peptides dermorphin, I, II, III and IV (table 1) were dissolved in 1 ml freshly prepared Krebs-Ringer solution and mixed together with 50 μg α-chymotrypsin (Serva, Heidelberg, dissolved in 50 μl Krebs-Ringer solution); immediately after mixing, a 100 μl aliquot was removed and heated up to 95° C. for 15 minutes. (The heating was employed in order to inactivate the enzyme). This aliquot removed, will be later used for reference as initial value (Zero-value of incubation time). The remaining 950 μl of the peptide/enzyme mixture were incubated for 5 hours at 37° C.; the incubation period was also terminated by heating up to 95° C.
After centrifugation identical aliquots of the supernatants were assayed quantitatively for their opiate-like effect and compared with the zero-value; and guinea-pig ileum was also used as assay system (as above described).

[3] = tested on: isolated guinea-pig ileum; test: opioid activity in the electrically stimulated guinea-pig ileum preparation; type: cell-based; conditions: for rel. value Der. = 100 / rel. value Nor. = 100: relative potency; for rel. value Der. = 100: dermorphin IC50 = 100%; for rel. value Nor. = 100: normorphine IC50 = 100%
Source text: As biological test system for determination of the opioid activity the ileum preparation of the guinea-pig was used (detailed description German application No. 29 21 216, p. 24). […] In addition for a better understanding the IC50 -value can be expressed as 100% for the opiates normorphine and dermorphin (DT-OS No. 30 34 897) and the relative activity of the single substances can be given in comparison to normorphine or dermorphine. The indication of the relative potency has the advantage that by this variations of the sensitivity of the assay are neutralized.
The (*) marked values of table 1 correspond to those which have been described by Castiglione et al. (Peptides, 2, p. 266, table 1, substances 1 and 3: column GPI=guinea-pig ileum preparation).
IC50 -values (nM), see description, of two peptides of the invention (III an IV) in comparison to those of the prior art (dermorphin,I,II) as measured in the isolated guinea-pig ileum. […] The inhibiting effect of the substances I, II, III, and IV was antagonized by addition of the specific opiate antagonist naloxone (final concentration in the organ bath 900 nM); upon further addition of the substances I to IV to the organ bath (in presence of naloxone) no further inhibition could be observed; the inhibiting effect of the substances I-IV has therefore to be considered as specific opiate-like.

Row | SMILES | pIC50 [1] | opiate-like activity remaining after incubation with α-chymotrypsin compared to zero-value [2] | rel. value Der. = 100 [3] | rel. value Nor. = 100 [3] | pIC50 ([3]; Cavia porcellus, isolated guinea-pig ileum, 7 experiments, read-out: IC50 (inhibition of electrically induced contractions by 50%))
1 | C[C@@H](NC(=O)[C@@H](N)Cc1ccc(O)cc1)C(=O)N[C@@H](Cc1ccccc1)C(=O)NCC(=O)N[C@@H](Cc1ccc(O)cc1)C(=O)N1CCC[C@H]1C(=O)N[C@@H](CO)C(N)=O [Dermorphin] | 8.46 | nearly fully destroyed | 100 | 3143 | 
2 | Oc1ccc2c3c1O[C@H]1[C@@H](O)C=C[C@H]4[C@@H](C2)NCC[C@@]341 [Normorphine] |  |  | 3.2 | 100 | 6.96
3 | C[C@@H](NC(=O)[C@@H](N)Cc1ccc(O)cc1)C(=O)N[C@@H](Cc1ccccc1)C(=O)N1CCC[C@H]1C(=O)N[C@@H](Cc1ccc(O)cc1)C(N)=O [Substance I, Tyr--D-Ala--Phe--Pro--Tyr--NH2] (H-Y[dA]FPY-NH2) |  | higher stability than substance II |  |  | 
4 | C[C@@H](NC(=O)[C@@H](N)Cc1ccc(O)cc1)C(=O)N[C@@H](Cc1ccccc1)C(=O)NCC(=O)N[C@@H](Cc1ccc(O)cc1)C(N)=O [Substance II, Tyr--D-Ala--Phe--Gly--Tyr--NH2] (H-Y[dA]FGY-NH2) |  | nearly fully destroyed |  |  | 
5 | C[C@@H](NC(=O)[C@H](Cc1ccccc1)NC(=O)[C@@H](C)NC(=O)[C@@H](N)Cc1ccc(O)cc1)C(=O)N[C@@H](Cc1ccc(O)cc1)C(N)=O [Substance III, Tyr--D-Ala--Phe--D-Ala--Tyr--NH2] (H-Y[dA]F[dA]Y-NH2) |  | higher stability towards proteolytic enzymes (compared to II); also recorded: full opiate-like activity |  |  | 
6 | C[C@@H](NC(=O)[C@H](Cc1ccccc1)NC(=O)[C@@H](C)NC(=O)[C@@H](N)Cc1ccc(O)cc1)C(=O)N[C@@H](Cc1ccccc1)C(N)=O [Substance IV, Tyr--D-Ala--Phe--D-Ala--Phe--NH2] (H-Y[dA]F[dA]F-NH2) |  | full opiate-like activity |  |  | 
